Literature values in patent US20260001962A1, “COMBINATION THERAPY METHODS WITH T-CELL ENGAGING MOLECULES FOR TREATMENT OF PROSTATE CANCER” (AMGEN INC., priority 2022, published 2026).
Entries after “also recorded” stand apart in the source; their conditions may differ.

How the values were obtained:
prostate cancer cells [1] = details: in vitro; Deegen et al. 2021
prostate cancer cells [2] = details: reported in literature

## CO[C@H]1C(=O)[C@]2(C)[C@@H](OC)C[C@H]3OC[C@@]3(OC(C)=O)[C@H]2[C@H](OC(=O)c2ccccc2)[C@]2(O)C[C@H](OC(=O)[C@H](O)[C@@H](NC(=O)OC(C)(C)C)c3ccccc3)C(C)=C1C2(C)C [Cabazitaxel]
mCRPC patients; mCRPC
  increase in median survival compared with mitoxantrone: 2.4 months

## [223Ra] [Radium-223]
mCRPC patients; patients with bone metastases, combined with best standard care, vs 11.3
  survival: 14.9 months

## CNC(=O)c1ccc(N2C(=S)N(c3ccc(C#N)c(C(F)(F)F)c3)C(=O)C2(C)C)cc1F [enzalutamide]
Prostate cancer cells [1]
  cytotoxicity of prostate cancer cells induced by PSMA-targeted T-cell engager (AMG 160): enhances cytotoxicity of prostate cancer cells; also recorded: enhance AMG 160-mediated cytotoxicity of prostate cancer cells
Prostate cancer cells [2]
  expression of PSMA on prostate cancer cells: rapidly upregulate expression of PSMA
mCRPC patients; first line mCRPC setting, vs 31.3
  OS: 35.3 months
